What was measured:
HMC-1 cells = assay: Tumor size in nude mice injected with HMC-1 cells expressing the BTK antisense; assay type: in vivo; details: nude mice injected with 2 millions HMC-1 cells, tumor size assessed few weeks after injection, FIG. 4
Source text: We used nude mice, which have been injected with 2 millions HMC-1 cells.

BTK = BTK expression in HMC-1 clones that integrated the retrovirus vector coding for the BTK antisense RNA; assay type: cell-based, human; details: HMC-1 target cells which integrated the vector; 4 clones; FIG. 3
Source text: 2.1 We used antisense RNA to inhibit the expression of BTK in HMC-1, which is resistant to apoptosis. In this regard, we have constructed a retrovirus vector coding for an antisense RNA containing 32 nucleotides directed to the sequence comprised in the AUG region of the BTK gene (SEQ ID No 1).
Target cells, which integrated this vector, show a significant decrease in the expression of BTK. Regarding 4 clones, we have noted a decrease of about 50% of the expression of the BTK (see FIG. 3).

HMC1 cells [1] = assay: G418-resistant colony formation of HMC1 cells infected with LNCX or LNCX-AS BTK virus; assay type: cell-based
Description: HMC1 cells seeded the day before in 6 wells plates (10^5 cells/ well) are infected with increasing doses of LNCX or LNCX-AS BTK virus. 24 hours after infection, cells are washed in PBS and cultured in medium containing geneticine (1.2 mg/ml). After one week, we observed the formation of colonies resistant to geneticine and whose number depends on the quantity of virus used for infection. When comparing the number of colonies of HMC1 resisting to G418 obtained from cells infected with the LNCX or LNCX-AS BTK virus, we observed independently of the virus concentration used, a lower number of colonies of cells infected with LNCX-AS BTK relative to the number of colonies of cells infected with LNCX. For equivalent quantity of virus, we obtained between 5 to 10 fold less colonies of HMC resisting to G418 by infecting with the LNCX-AS BTK virus compared to the infection with the LNCX “empty”.
The 10 to 20% surviving clones are those for which the antisense expression level is weak thereby maintaining a BTK expression level compatible with cellular survival.

HMC1 cells [2] = assay: Determination of HMC1 cells sensibility to G418 (lethal geneticine dose); assay type: cell-based, human; details: 6 wells plate; 0 to 1.4 mg/ml tested; colonies visualized one week after seeding
Description: To determine, the lethal geneticine dose for HMC1, cells were seeded in 6 wells plate (10^5 cells/wells) in presence of increasing concentration of geneticine (0; 0.6; 0.8; 1; 1.2; 1.4 mg/ml). One week after seeding, colonies are visualized by crystal purple coloration. It appears that the effective dose was 1.2 mg/ml geneticine in the culture Media. Indeed, at lower doses, we observed development of HMC1 colonies. • -Infection of HMC1 Cells

5′ AGAATCACTGCGGCCATAGCTTCTTCTTTCTG 3′ (chemistry not given here) [BTK antisense]
anti-tumoral effect (size of the tumors) (HMC-1 cells): significant anti-tumoral effects | anti-tumoral effect (size of the tumors) (HMC-1 cells; listed as antisens oligonucleotide directed against BTK): significantly decrease the size of tumors | decrease of the expression of the BTK (BTK): about 50% | cellular mortality (HMC1 cells [1]; HMC1 cells, decrease of BTK expression by the antisense RNA): 80 to 90% | surviving clones (HMC1 cells [1]; HMC1 clones with weak antisense expression level): 10 to 20%

CN[C@@H]1[C@@H](O)[C@@H](O[C@@H]2[C@@H](O)[C@H](O[C@H]3O[C@H]([C@@H](C)O)[C@@H](O)[C@H](O)[C@H]3N)[C@@H](N)C[C@H]2N)OC[C@]1(C)O [geneticine]
lethal (effective) geneticine dose for HMC1 (HMC1 cells [2]): 1.2 mg/mL
